PMC9780888, “4-Isobutylmethcathinone—A Novel Synthetic Cathinone with High In Vitro Cytotoxicity and Strong Receptor Binding Preference of Enantiomers” (Pharmaceuticals, 2022)
Structures can show the parent of a compound that is named as a salt.

Biological target: T1, dopamine receptor DAR2 (Homo sapiens, UniProt P14416)
T1 construct: host or cells: HTLA (HEK 293-derived)
Experiment: PRESTO-Tango β-arrestin 2 recruitment assay, DAR2
Assay type: cell-based
Conditions: for RLU value relative to control (transfected but untreated HTLA cells): DAR2, 500 nM
Source text: However, binding to a specific receptor/transporter and, thus, the mechanism of action of a given cathinone always depends on the specific structure of the evaluated compound [37]. In this study, the binding activity of IBMcat and its enantiomers was verified by PRESTO-Tango (parallel receptor expression and screening via transcriptional output, with transcriptional activation following arrestin-2 translocation) assay using the HTLA cell line stably producing β-arrestin-2 in a fusion with TEV and luciferase production driven by tTA. For this purpose, the HTLA cells were transiently transfected with plasmid DNA encoding the dopamine receptors type 1-4 (DAR1-4), which also contain the TEV protease cleavage site followed by tTA at the 3’-end (DAR1-Tango, DAR2-Tango, DAR3-Tango, DAR4-Tango). In the case of the receptor activation by a ligand, in transfected cells, the receptor is desensitized by β-arrestin fused to TEV protease. This brings the TEV protease close to the site that specifically cleaves and, thus, the transcription factor can be cleaved. The transcription factor then translocates to the cell nucleus, in which it triggers the transcription of the target gene for luciferase production which can be determined by the light emitted from luciferin conversion to oxyluciferin. Here, the pronounced luminescence was recorded for all DAR1-4 types in HTLA cells treated with IBMCat and its enantiomers (Figure 8).
The HTLA cell line was used for the PRESTO-Tango β-arrestin recruitment assay. […]
The transfected HTLA cells were incubated for 24 h, and then 1 × 10^4 cells were seeded per well of a white 96-well clear bottom plate (Brand, Germany) in 40 μL of DMEM with 1% charcoal-stripped FBS (Thermo Fisher Scientific, USA). […] After 5 min., the luminescence was measured using a multi-mode microplate reader SpectraMax iD5 (Molecular Devices, San Jose, CA, USA) measuring the entire wavelength spectrum. All samples were measured in quadruplicates. The data were evaluated by Prism 7 software (GraphPad, San Jose, CA, USA).

T1 sequence (P14416 whole entry): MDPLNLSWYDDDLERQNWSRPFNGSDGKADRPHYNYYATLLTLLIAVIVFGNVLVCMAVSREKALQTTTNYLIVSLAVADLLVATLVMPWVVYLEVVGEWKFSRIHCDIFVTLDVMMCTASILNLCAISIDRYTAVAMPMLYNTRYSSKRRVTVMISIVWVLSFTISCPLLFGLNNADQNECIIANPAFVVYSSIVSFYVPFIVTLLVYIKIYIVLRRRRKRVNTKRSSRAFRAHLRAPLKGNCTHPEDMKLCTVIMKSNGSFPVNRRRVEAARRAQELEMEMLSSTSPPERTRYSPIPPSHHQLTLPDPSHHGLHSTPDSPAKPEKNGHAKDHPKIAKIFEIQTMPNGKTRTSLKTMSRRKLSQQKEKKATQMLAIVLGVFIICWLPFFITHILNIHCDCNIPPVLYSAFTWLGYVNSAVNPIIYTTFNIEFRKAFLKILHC

SMILES	RLU value relative to control (transfected but untreated HTLA cells)	effect on DAR2-expressing cells (0-500 nM)
CNC(C)C(=O)c1ccc(CC(C)C)cc1.Cl (stereo not drawn) [IBMcat, 4-isobutylmethcathinone hydrochloride]	approximately 5 fold	
CN[C@H](C)C(=O)c1ccc(CC(C)C)cc1 [R-IBMCat]		no effect
CN[C@@H](C)C(=O)c1ccc(CC(C)C)cc1 [S-IBMCat, (S)-4-isobutylmethcathinone hydrochloride]	~3 fold	
